From ChEMBL document CHEMBL1201862, “PubChem BioAssay data set” (2004)
The source made the active and inactive calls. Rule as the data show it, for most assays here: actives have a measured IC50 and inactives only a lower limit.

Key:
[1] = biological target: T1, Tyrosine-protein phosphatase non-receptor type 22 (Homo sapiens, UniProt Q9Y2R2); experiment: LYP (PTPN22) phosphatase inhibitor potency, SAR follow-up, biochemical, pCAP fluorogenic substrate, fluorescence, set 3 (AID 449727); type: functional
T1 sequence (Q9Y2R2 whole entry): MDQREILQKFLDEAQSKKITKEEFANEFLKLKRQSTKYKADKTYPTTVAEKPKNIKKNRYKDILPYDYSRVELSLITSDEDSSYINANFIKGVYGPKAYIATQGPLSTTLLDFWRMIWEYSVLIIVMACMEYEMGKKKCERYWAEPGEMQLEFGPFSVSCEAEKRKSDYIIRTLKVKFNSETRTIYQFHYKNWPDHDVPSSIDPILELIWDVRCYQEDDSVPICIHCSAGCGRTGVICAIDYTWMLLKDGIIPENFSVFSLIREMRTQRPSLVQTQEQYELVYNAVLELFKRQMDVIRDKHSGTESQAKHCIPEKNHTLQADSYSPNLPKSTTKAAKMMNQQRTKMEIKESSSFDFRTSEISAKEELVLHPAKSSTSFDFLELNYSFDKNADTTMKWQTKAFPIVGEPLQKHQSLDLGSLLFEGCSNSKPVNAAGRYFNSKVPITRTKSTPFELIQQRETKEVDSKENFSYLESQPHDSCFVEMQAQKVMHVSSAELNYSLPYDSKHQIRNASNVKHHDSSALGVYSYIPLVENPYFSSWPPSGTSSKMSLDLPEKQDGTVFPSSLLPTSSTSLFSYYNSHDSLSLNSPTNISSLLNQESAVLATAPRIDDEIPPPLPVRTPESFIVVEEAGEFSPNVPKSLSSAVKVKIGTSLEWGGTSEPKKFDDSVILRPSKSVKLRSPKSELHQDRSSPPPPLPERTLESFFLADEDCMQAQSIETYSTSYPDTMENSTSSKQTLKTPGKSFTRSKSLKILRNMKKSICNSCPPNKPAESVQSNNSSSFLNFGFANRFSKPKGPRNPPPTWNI

[2] = biological target: T1, Tyrosine-protein phosphatase non-receptor type 22; experiment: PubChem AID 2140
[3] = biological target: T1, Tyrosine-protein phosphatase non-receptor type 22; experiment: SAR LYP1 Fluorescent Assay using OMFP substrate for In Vitro dose response studies - Set 3. [Related pubchem assays (depositor defined):AID1779, AID1784, AID2140, AID2686]; type: functional
[4] = biological target: Tyrosine-protein phosphatase non-receptor type 12 (Homo sapiens, UniProt Q05209); experiment: SAR Selectivity Analysis of small molecule inhibitors of PEST using pCAP in a fluorescence assay. [Related pubchem assays (depositor defined):AID1779, AID1784, AID2135]; type: functional
[5] = biological target: T1, Tyrosine-protein phosphatase non-receptor type 22; experiment: SAR LYP1 Fluorescent Assay using OMFP substrate for In Vitro dose response studies - Set 2. [Related pubchem assays (depositor defined):AID1779, AID1784, AID2140, AID449726, AID488869]; type: functional
[6] = biological target: T1, Tyrosine-protein phosphatase non-receptor type 22; experiment: PubChem AID 2135
[7] = biological target: T1, Tyrosine-protein phosphatase non-receptor type 22; experiment: SAR LYP1 Fluorescent Assay using pCAP substrate for In Vitro dose response studies - Set 2. [Related pubchem assays (depositor defined):AID1779, AID1784, AID2135, AID449727]; type: functional
[8] = biological target: T2, Tyrosine-protein phosphatase non-receptor type 7 (Homo sapiens, UniProt P35236); experiment: HePTP (PTPN7) phosphatase inhibitor potency, SAR follow-up, biochemical, set 2 (AID 449736); type: functional
T2 sequence (P35236 whole entry): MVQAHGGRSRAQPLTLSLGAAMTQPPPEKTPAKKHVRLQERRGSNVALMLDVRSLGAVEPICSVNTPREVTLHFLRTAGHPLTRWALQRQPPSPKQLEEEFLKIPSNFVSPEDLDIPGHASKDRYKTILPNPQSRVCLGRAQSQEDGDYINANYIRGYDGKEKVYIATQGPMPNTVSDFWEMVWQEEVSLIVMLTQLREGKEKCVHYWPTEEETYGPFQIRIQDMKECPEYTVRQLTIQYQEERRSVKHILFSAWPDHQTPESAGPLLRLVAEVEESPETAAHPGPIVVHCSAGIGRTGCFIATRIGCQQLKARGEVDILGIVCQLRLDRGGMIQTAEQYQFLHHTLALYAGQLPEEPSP

SUMO-activating enzyme [9] = biological target: T3, SUMO-activating enzyme (Homo sapiens, UniProt Q9UBT2); experiment: inhibitors of in vitro SUMOylation cascade, primary screen, biochemical, HTRF, uHTS (AID 2006); type: protein-complex assay
[10] = biological target: T4, Alkaline phosphatase, tissue-nonspecific isozyme (Homo sapiens, UniProt P05186); experiment: TNAP enzyme activators, dose response, selectivity assay for mouse IAP activator project, biochemical, TNAP isozyme, mouse IAP uHTS hits (AID 488880); type: functional
T4 sequence (P05186 whole entry): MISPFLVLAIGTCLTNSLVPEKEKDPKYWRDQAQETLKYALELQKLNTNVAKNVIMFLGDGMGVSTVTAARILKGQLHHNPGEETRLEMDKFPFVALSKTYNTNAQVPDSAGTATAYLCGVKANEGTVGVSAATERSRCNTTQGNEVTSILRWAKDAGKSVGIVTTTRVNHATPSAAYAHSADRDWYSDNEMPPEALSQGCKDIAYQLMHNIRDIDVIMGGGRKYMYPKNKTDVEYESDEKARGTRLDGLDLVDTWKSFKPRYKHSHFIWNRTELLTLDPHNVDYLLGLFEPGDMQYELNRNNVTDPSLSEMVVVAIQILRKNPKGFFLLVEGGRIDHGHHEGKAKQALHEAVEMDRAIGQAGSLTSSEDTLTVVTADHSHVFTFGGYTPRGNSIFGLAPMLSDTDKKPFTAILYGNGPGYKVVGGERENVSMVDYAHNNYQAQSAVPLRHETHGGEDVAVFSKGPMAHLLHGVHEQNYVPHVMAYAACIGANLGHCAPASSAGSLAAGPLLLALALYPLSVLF

[11] = biological target: Intestinal-type alkaline phosphatase (Mus musculus, UniProt P24822); experiment: mouse intestinal alkaline phosphatase activators, dose response, biochemical, luminescence, uHTS hits (AID 488783); type: functional
SUMO-activating enzyme [12] = biological target: T3, SUMO-activating enzyme; experiment: SUMOylation inhibitor hit validation, confirmation, SUMOylation inhibitor project, biochemical, AlphaScreen (AID 2018); type: functional
[13] = biological target: Intestinal-type alkaline phosphatase (Homo sapiens, UniProt P09923); experiment: activation of human intestinal alkaline phosphatase – biochemical, dose response (AID 488873); type: functional
Large T antigen = Large T antigen (Simian virus 40, UniProt P03070); type: functional, Betapolyomavirus macacae;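 also: Confirmatory-stage PubChem screen for compounds that inhibit SV40 T antigen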
Chain of Large T antigen (P03070 whole entry): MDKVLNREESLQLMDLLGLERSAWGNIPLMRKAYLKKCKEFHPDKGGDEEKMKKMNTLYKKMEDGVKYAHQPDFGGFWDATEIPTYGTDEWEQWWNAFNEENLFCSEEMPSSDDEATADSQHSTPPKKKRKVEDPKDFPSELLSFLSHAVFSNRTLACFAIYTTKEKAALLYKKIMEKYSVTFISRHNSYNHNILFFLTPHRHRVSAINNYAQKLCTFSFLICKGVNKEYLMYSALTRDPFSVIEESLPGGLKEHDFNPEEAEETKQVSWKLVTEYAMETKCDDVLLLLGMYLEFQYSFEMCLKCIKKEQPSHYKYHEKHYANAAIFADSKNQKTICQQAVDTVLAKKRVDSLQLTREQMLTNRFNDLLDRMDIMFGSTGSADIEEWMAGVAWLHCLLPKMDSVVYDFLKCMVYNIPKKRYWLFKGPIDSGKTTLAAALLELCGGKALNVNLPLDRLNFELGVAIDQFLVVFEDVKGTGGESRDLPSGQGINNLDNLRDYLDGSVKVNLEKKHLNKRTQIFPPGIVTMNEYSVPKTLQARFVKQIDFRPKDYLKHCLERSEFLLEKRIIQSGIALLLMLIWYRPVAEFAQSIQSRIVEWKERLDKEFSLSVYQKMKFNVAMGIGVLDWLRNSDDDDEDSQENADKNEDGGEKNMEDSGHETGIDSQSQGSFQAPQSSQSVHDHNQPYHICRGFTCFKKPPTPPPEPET

T3 sequence (Q9UBE0 whole entry): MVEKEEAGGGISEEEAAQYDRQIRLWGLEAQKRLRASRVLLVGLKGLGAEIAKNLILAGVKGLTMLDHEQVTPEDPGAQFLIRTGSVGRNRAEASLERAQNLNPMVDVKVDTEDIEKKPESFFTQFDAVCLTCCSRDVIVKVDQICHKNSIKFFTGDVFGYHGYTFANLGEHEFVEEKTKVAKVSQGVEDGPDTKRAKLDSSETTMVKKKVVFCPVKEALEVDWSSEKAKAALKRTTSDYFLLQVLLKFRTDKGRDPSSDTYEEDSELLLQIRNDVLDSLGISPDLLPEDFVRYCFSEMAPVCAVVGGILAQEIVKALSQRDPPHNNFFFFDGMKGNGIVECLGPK
T3 sequence (Q9UBT2 whole entry): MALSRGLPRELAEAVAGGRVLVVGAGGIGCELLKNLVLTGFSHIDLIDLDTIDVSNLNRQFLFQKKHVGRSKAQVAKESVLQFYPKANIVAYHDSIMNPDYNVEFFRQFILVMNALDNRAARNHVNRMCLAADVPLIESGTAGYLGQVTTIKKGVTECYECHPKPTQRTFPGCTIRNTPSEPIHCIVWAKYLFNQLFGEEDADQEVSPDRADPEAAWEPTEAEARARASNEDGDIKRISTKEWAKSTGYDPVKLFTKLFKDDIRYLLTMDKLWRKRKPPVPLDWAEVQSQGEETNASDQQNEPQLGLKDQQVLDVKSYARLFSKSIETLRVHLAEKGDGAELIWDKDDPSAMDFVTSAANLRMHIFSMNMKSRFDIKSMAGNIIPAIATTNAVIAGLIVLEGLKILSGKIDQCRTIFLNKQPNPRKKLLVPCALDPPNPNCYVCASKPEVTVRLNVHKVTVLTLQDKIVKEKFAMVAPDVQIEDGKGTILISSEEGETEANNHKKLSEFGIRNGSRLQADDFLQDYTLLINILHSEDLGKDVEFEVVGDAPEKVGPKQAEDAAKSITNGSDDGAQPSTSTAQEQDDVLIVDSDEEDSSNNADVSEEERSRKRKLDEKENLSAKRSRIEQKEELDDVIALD
Chain of Intestinal-type alkaline phosphatase (Mus musculus, UniProt P24822) (P24822 whole entry): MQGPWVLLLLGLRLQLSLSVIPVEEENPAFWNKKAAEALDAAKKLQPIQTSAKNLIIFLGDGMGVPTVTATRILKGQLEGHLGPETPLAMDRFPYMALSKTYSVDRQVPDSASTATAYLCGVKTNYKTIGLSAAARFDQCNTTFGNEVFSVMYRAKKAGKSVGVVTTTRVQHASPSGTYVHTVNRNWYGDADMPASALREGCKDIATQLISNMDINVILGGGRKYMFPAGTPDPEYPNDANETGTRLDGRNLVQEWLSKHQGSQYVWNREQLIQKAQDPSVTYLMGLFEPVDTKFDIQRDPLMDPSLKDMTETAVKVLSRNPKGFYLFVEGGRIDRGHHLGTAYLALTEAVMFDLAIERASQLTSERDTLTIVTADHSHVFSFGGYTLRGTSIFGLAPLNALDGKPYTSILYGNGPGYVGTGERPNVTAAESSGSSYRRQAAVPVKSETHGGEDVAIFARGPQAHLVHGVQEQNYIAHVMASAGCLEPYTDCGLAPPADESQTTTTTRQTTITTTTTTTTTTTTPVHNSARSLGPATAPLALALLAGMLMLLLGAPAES
Chain of Intestinal-type alkaline phosphatase (Homo sapiens, UniProt P09923) (P09923 whole entry): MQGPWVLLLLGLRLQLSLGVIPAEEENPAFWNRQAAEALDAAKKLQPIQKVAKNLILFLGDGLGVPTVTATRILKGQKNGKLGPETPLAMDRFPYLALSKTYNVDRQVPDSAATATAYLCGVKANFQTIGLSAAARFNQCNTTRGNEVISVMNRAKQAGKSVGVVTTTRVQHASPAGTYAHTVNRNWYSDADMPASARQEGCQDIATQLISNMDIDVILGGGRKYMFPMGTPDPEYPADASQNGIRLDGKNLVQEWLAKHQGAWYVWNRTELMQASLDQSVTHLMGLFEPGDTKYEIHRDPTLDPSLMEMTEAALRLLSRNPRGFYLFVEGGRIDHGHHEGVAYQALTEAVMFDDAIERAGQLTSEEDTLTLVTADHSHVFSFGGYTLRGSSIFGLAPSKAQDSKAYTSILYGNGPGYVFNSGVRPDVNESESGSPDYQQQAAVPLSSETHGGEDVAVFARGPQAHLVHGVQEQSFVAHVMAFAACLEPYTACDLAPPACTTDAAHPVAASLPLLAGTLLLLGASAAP
Chain of Tyrosine-protein phosphatase non-receptor type 12 (Q05209 whole entry): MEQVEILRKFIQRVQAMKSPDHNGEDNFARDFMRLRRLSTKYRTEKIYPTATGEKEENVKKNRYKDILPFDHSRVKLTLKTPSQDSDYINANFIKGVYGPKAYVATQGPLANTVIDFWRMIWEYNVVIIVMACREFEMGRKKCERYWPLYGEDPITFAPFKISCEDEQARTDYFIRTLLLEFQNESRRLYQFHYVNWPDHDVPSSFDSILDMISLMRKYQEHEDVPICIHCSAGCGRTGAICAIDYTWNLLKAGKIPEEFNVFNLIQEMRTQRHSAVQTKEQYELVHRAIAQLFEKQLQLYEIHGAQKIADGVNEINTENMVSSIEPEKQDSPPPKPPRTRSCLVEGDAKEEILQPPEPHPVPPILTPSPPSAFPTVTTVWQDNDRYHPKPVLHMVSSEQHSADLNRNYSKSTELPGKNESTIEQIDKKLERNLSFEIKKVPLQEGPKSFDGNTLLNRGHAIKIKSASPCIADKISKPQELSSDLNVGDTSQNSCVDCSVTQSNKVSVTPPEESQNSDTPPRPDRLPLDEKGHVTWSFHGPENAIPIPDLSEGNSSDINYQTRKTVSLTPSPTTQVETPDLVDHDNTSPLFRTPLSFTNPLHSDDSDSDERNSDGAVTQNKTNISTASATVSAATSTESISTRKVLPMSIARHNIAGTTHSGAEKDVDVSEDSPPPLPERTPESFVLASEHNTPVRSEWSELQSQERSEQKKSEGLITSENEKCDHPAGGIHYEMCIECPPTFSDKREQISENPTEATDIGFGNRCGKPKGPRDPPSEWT

Row | IC50 [1] | IC50 [2] | IC50 [3] | IC50 [4] | IC50 [5] | IC50 [6] | IC50 [7] | IC50 [8] | Compound | IC50 (SUMO-activating enzyme [9]) | EC50 [10] | EC50 [11] | IC50 (SUMO-activating enzyme [12]) | EC50 [13] | IC50 (Large T antigen)
1 | 61.2 µM (active) | > 100 µM (inactive) | 94.2 µM (active) | 22.1 µM (active) | 35.5 µM (active) | 59.2 µM (active) | 33.9 µM (active) | 7.01 µM (active) | COc1cc(/C=C(\C#N)c2ccc(F)cc2)ccc1OCc1ccc(C(=O)O)cc1 |  |  |  |  |  | 
2 |  |  |  |  |  |  |  |  | O=C(CCN1C(=O)/C(=C/c2ccco2)SC1=S)Nc1ccc(C(=O)O)c(O)c1 | 14.3 µM (active) | 84.9 µM (active) | 7.32 µM (active) | 1.46 µM (active) | 66.2 µM (active) | 56.1 µM (active)
